Results from the supplement of paper PMC11061612.

How the values were obtained:
[1] = test system: A375 (Melanoma); assay: combination Emax (second highest fraction inhibited in the dose matrix, 72 h); higher = more inhibition; extreme values may be limits of the assay
Outline: (§1)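 Bliss excess equals the observed combination effect minus the expected value EA + EB − EA·EB, where EA and EB are the effects of each agent alone. Combination Emax is the second-highest inhibition within the matrix. Inhibition was scaled from CellTiter-Glo 2.0 luminescence, with 0 set by vehicle wells and 1 by blank wells, after 72 hours of two-drug dosing of cells plated in 1536-well plates.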

[2] = test system: SK-N-DZ (Neuroblastoma); assay: as above
Outline: as §1

[3] = test system: Daudi (Burkitt's Lymphoma); assay: as above
Outline: as §1

[4] = test system: BC-1 (B-Cell Non-Hodgkin's Lymphoma); assay: as above
Outline: as §1

[5] = test system: IGROV-1 (Ovarian Carcinoma); assay: as above
Outline: as §1

[6] = test system: C32 (Melanoma); assay: as above
Outline: as §1

[7] = test system: SK-MEL-24 (Melanoma); assay: as above
Outline: as §1

[8] = test system: GRANTA-519 (B-Cell Non-Hodgkin's Lymphoma); assay: as above
Outline: as §1

[9] = test system: JJN-3 (Plasma Cell Myeloma); assay: as above
Outline: as §1

[10] = test system: KNS-62 (Squamous Cell Lung Carcinoma); assay: as above
Outline: as §1

[11] = test system: RPMI-8402 (T-Lymphoblastic Leukemia); assay: as above
Outline: as §1

[12] = test system: HT-144 (Melanoma); assay: as above
Outline: as §1

[13] = test system: RVH-421 (Melanoma); assay: as above
Outline: as §1

[14] = test system: CAL-85-1 (Breast Carcinoma); assay: as above
Outline: as §1

[15] = test system: SBC-3 (Small Cell Lung Carcinoma); assay: as above
Outline: as §1

[16] = test system: NCI-H1435 (Non-Small Cell Lung Carcinoma); assay: as above
Outline: as §1

[17] = test system: RVH-421 (Melanoma); assay: Bliss excess, mean over the matrix (fraction); higher = more synergy
Outline: as §1

Row | Compound | combination Emax [1] | combination Emax [2] | combination Emax [3] | combination Emax [4] | combination Emax [5] | combination Emax [6] | combination Emax [7] | combination Emax [8] | combination Emax [9] | combination Emax [10] | combination Emax [11] | combination Emax [12] | combination Emax [13] | combination Emax [14] | combination Emax [15] | combination Emax [16] | Bliss excess [17]
1 | CN(C)CCCOc1ccc(-c2ccc3ncc4c(c3c2)n(C2CCOCC2)c(=O)n4C)cn1 [AZD0156] + C=CCn1c(=O)c2cnc(Nc3ccc(N4CCN(C)CC4)cc3)nc2n1-c1cccc(C(C)(C)O)n1 [AZD1775] (first compound max 1 µM, partner max 1 µM) | 0.535 | 0.962 | 0.781 | 0.999 | 0.769 | 0.442 | 0.443 | 0.816 | 0.661 | 0.185 | 1 | 0.587 | 0.161 | 0.363 | 0.442 | 0.193 | -0.0576
2 | CN(C)CCCOc1ccc(-c2ccc3ncc4c(c3c2)n(C2CCOCC2)c(=O)n4C)cn1 [AZD0156] + CCN(CCO)CCCOc1ccc2c(Nc3cc(CC(=O)Nc4cccc(F)c4)[nH]n3)ncnc2c1 [AZD2811] (first compound max 1 µM, 7x7, partner max 1 µM) | 0.33 | 0.391 | 0.497 | 0.752 | 0.539 | 0.14 | 0.16 | 0.364 | 0.404 | 0.141 | 0.889 | 0.232 | 0.0787 | 0.104 | 0.409 | 0.101 | -0.0626
3 | CN(C)CCCOc1ccc(-c2ccc3ncc4c(c3c2)n(C2CCOCC2)c(=O)n4C)cn1 [AZD0156] + C[C@@H]1COCCN1C2=NC(=NC(=C2)C3(CC3)[S@](=N)(=O)C)C4=C5C=CNC5=NC=C4 [AZD6738] (first compound max 1 µM, 7x7, partner max 10 µM) | 0.815 | 0.975 | 0.848 | 0.936 | 0.724 | 0.666 | 0.457 | 0.82 | 0.938 | 0.485 | 0.983 | 0.721 | 0.18 | 0.446 | 0.798 | 0.158 | -0.0581
4 | C=CCn1c(=O)c2cnc(Nc3ccc(N4CCN(C)CC4)cc3)nc2n1-c1cccc(C(C)(C)O)n1 [AZD1775] + C[C@@H]1COCCN1C2=NC(=NC(=C2)C3(CC3)[S@](=N)(=O)C)C4=C5C=CNC5=NC=C4 [AZD6738] (first compound max 1 µM, partner max 10 µM) | 0.766 | 1 | 0.901 | 1 | 0.827 | 0.73 | 0.725 | 0.826 | 0.832 | 0.565 | 1 | 0.777 | 0.213 | 0.669 | 0.889 | 0.398 | -0.0495
5 | C=CCn1c(=O)c2cnc(Nc3ccc(N4CCN(C)CC4)cc3)nc2n1-c1cccc(C(C)(C)O)n1 [AZD1775] + O=C(c1cc(Cc2n[nH]c(=O)c3ccccc23)ccc1F)N1CCN(C(=O)C2CC2)CC1 [Olaparib] (first compound max 1 µM, partner max 10 µM) | 0.476 | 0.935 | 0.84 | 0.998 | 0.769 | 0.438 | 0.465 | 0.804 | 0.645 | 0.225 | 1 | 0.606 | 0.253 | 0.394 | 0.621 | 0.296 | -0.105
6 | CCN(CCO)CCCOc1ccc2c(Nc3cc(CC(=O)Nc4cccc(F)c4)[nH]n3)ncnc2c1 [AZD2811] + C=CCn1c(=O)c2cnc(Nc3ccc(N4CCN(C)CC4)cc3)nc2n1-c1cccc(C(C)(C)O)n1 [AZD1775] (first compound max 1 µM, partner max 1 µM) | 0.482 | 0.96 | 0.786 | 0.989 | 0.755 | 0.359 | 0.414 | 0.798 | 0.694 | 0.169 | 1 | 0.634 | 0.0949 | 0.297 | 0.539 | 0.143 | -0.0694
7 | CCN(CCO)CCCOc1ccc2c(Nc3cc(CC(=O)Nc4cccc(F)c4)[nH]n3)ncnc2c1 [AZD2811] + C[C@@H]1COCCN1C2=NC(=NC(=C2)C3(CC3)[S@](=N)(=O)C)C4=C5C=CNC5=NC=C4 [AZD6738] (first compound max 1 µM, 7x7, partner max 10 µM) | 0.625 | 0.96 | 0.851 | 0.921 | 0.646 | 0.613 | 0.428 | 0.782 | 0.566 | 0.417 | 1 | 0.706 | 0.172 | 0.481 | 0.656 | 0.17 | -0.0815
8 | CCN(CCO)CCCOc1ccc2c(Nc3cc(CC(=O)Nc4cccc(F)c4)[nH]n3)ncnc2c1 [AZD2811] + O=C(c1cc(Cc2n[nH]c(=O)c3ccccc23)ccc1F)N1CCN(C(=O)C2CC2)CC1 [Olaparib] (first compound max 1 µM, 7x7, partner max 10 µM) | 0.408 | 0.405 | 0.48 | 0.669 | 0.303 | 0.232 | 0.225 | 0.452 | 0.336 | 0.145 | 0.85 | 0.309 | 0.176 | 0.0869 | 0.617 | 0.196 | -0.0685
9 | CN(CCO)CC[C@H](CSc1ccccc1)Nc1ccc(S(=O)(=O)NC(=O)c2ccc(N3CCC([C@@H](O)c4ccccc4-c4ccc(Cl)cc4)CC3)cc2)cc1S(=O)(=O)C(F)(F)F [AZD4320] + C=CCn1c(=O)c2cnc(Nc3ccc(N4CCN(C)CC4)cc3)nc2n1-c1cccc(C(C)(C)O)n1 [AZD1775] (first compound max 1 µM, partner max 1 µM) | 0.749 | 1 | 0.336 | 0.999 | 0.894 | 0.639 | 0.582 | 1 | 0.662 | 0.363 | 1 | 0.654 | 0.442 | 0.439 | 0.69 | 0.801 | 0.0274
10 | CN(CCO)CC[C@H](CSc1ccccc1)Nc1ccc(S(=O)(=O)NC(=O)c2ccc(N3CCC([C@@H](O)c4ccccc4-c4ccc(Cl)cc4)CC3)cc2)cc1S(=O)(=O)C(F)(F)F [AZD4320] + CN(C)CCCOc1ccc(-c2ccc3ncc4c(c3c2)n(C2CCOCC2)c(=O)n4C)cn1 [AZD0156] (first compound max 1 µM, 7x7, partner max 1 µM) | 0.129 | 0.697 | 0.119 | 0.17 | 0.611 | 0.284 | 0.252 | 0.934 | 0.445 | 0.125 | 0.903 | 0.219 | 0.164 | 0.29 | 0.163 | 0.651 | -0.0254
11 | CN(CCO)CC[C@H](CSc1ccccc1)Nc1ccc(S(=O)(=O)NC(=O)c2ccc(N3CCC([C@@H](O)c4ccccc4-c4ccc(Cl)cc4)CC3)cc2)cc1S(=O)(=O)C(F)(F)F [AZD4320] + Cn1cnc2c(F)c(Nc3ccc(Br)cc3Cl)c(C(=O)NOCCO)cc21 [Selumetinib] (first compound max 1 µM, 7x7, partner max 3 µM) | 0.749 | 0.827 | 0.65 | 0.443 | 0.612 | 0.975 | 0.761 | 1 | 0.731 | 0.399 | 0.999 | 0.834 | 0.643 | 0.683 | 0.981 | 0.819 | 0.106
12 | Cc1c2c(nn1C)CSCc1cc(n(C)n1)CSc1cc(c3ccccc3c1)OCCCc1c(C(=O)O)n(C)c3c-2c(Cl)ccc13 [AZD5991] + C1CN(CCC1(C(=O)N[C@@H](CCO)C2=CC=C(C=C2)Cl)N)C3=NC=NC4=C3C=CN4 [Capivasertib] (first compound max 1 µM, 7x7, partner max 3 µM) | 0.2 | 0.182 | 0.348 | 1 | 0.767 | 0.266 | 0.439 | 0.0859 | 1 | 0.31 | 0.929 | 1 | 0.411 | 0.145 | 0.334 | 0.179 | -0.0513
13 | Cc1c2c(nn1C)CSCc1cc(n(C)n1)CSc1cc(c3ccccc3c1)OCCCc1c(C(=O)O)n(C)c3c-2c(Cl)ccc13 [AZD5991] + CC1(C)CCC(CN2CCN(c3ccc(C(=O)NS(=O)(=O)c4ccc(NCC5CCOCC5)c([N+](=O)[O-])c4)c(Oc4cnc5[nH]ccc5c4)c3)CC2)=C(c2ccc(Cl)cc2)C1 [Venetoclax] (first compound max 1 µM, 7x7, partner max 1 µM) | 0.307 | 0.479 | 0.258 | 1 | 0.469 | 0.626 | 0.336 | 0.472 | 1 | – | 0.932 | 0.955 | 0.358 | 0.122 | 0.69 | 0.206 | -0.0237
14 | C[C@@H]1COCCN1c1cc(C2([S@](C)(=N)=O)CC2)nc(-c2ccnc3[nH]ccc23)n1 [AZD6738] + O=C(c1cc(Cc2n[nH]c(=O)c3ccccc23)ccc1F)N1CCN(C(=O)C2CC2)CC1 [Olaparib] (first compound max 10 µM, 7x7, partner max 10 µM) | 0.66 | 0.915 | 0.828 | 0.939 | 0.704 | 0.694 | 0.551 | 0.754 | 0.584 | 0.413 | 1 | 0.859 | 0.215 | – | 0.699 | 0.212 | -0.0324
